Reference: patent publication US10239873B2, “7-azaindole or 4,7-diazaindole derivatives as IKKϵ epsilon and TBK1 inhibitor and pharmaceutical composition comprising same” (GREEN CROSS CORPORATION, priority 2015, dated 2019)

These compounds were tested against T1, TBK1 (Homo sapiens, UniProt Q9UHD2) (assay: ADP-Glo Kinase Assay, inhibition activity on TBK1).
T1 construct: purchased Promega (Invitrogen is also named in the same bracket) V4158; PR8031B; V3991 (not assigned to the two kinases)
T1 sequence (Q9UHD2 1-729): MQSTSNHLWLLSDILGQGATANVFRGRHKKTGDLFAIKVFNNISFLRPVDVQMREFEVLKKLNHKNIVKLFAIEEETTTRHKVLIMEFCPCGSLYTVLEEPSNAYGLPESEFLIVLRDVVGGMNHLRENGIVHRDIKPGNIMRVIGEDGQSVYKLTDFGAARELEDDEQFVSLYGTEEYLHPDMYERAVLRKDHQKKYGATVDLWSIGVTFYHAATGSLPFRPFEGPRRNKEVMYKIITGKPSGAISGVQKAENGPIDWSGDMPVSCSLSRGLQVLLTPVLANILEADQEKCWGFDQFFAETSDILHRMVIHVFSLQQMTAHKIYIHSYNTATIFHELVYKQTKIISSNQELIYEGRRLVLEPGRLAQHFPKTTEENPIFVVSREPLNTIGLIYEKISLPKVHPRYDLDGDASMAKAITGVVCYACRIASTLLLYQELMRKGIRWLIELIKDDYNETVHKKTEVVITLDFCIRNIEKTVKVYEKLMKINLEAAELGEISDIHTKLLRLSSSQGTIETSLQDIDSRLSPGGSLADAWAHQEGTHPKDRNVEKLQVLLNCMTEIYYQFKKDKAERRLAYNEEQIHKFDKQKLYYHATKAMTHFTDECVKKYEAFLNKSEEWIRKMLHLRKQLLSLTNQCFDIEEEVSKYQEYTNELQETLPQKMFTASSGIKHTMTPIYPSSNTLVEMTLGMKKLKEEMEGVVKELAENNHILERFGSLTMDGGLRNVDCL
Format: biochemical
Outline: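 In 40 mM Tris pH 7.5 with 20 mM MgCl2 and 0.1 mg/mL BSA, each enzyme (IKKε or TBK1 kinase system) was run according to the manufacturer's protocol. ADP formed was detected by ADP-Glo luminescence.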

Row | Structure (SMILES) | IC50
1 | CS(=O)(=O)Nc1cccc(-c2cnc3[nH]cc(C4=CCN(C(=O)c5cccs5)CC4)c3c2)c1 [Example 201, N-(3-(3-(1-(thiophene-2-carbonyl)-1,2,3,6-tetrahydropyridin-4-yl)-1H-pyrrolo[2,3-b]pyridin-5-yl)phenyl)methansulfonamide] | > 10000 nM
2 | COc1ccc(-c2cnc3[nH]cc(C4=CCN(C(=O)c5ccc(C)s5)CC4)c3c2)cc1OC [Example 210, (4-(5-(3,4-dimethoxyphenyl)-1H-pyrrolo[2,3-b]pyridin-3-yl)-5,6-dihydropyridin-1(2H)-yl)(5-methylthiophen-2-yl)methanone] | 3000 nM
3 | Cc1ccc(C(=O)N2CC=C(c3c[nH]c4ncc(-c5ccc(S(C)(=O)=O)cc5)cc34)CC2)s1 [Example 211, (4-(5-(4-(methylsulfonyl)phenyl)-1H-pyrrolo[2,3-b]pyridin-3-yl)-5,6-dihydropyridin-1(2H)-yl)(5-methylthiophen-2-yl)methanone] | 3500 nM
4 | Cc1ccc(C(=O)N2CC=C(c3c[nH]c4ncc(-c5ccc(S(N)(=O)=O)cc5)cc34)CC2)s1 [Example 212, 4-(3-(1-(5-methylthiophene-2-carbonyl)-1,2,3,6-tetrahydropyridin-4-yl)-1H-pyrrolo[2,3-b]pyridin-5-yl)benzensulfonamide] | 2600 nM
5 | CN(C(=O)N1CC=C(c2c[nH]c3ncc(-c4cccc(S(N)(=O)=O)c4)cc23)CC1)C1CCCC1 [Example 218, N-cyclopentyl-N-methyl-4-(5-(3-sulfamoylphenyl)-1H-pyrrolo[2,3-b]pyridin-3-yl)-5,6-dihydropyridine-1(2H)-carboxamide] | > 10000 nM
6 | CN(C(=O)N1CC=C(c2c[nH]c3ncc(-c4ccc(S(N)(=O)=O)cc4)cc23)CC1)C1CCCC1 [Example 219, N-cyclopentyl-N-methyl-4-(5-(4-sulfamoylphenyl)-1H-pyrrolo[2,3-b]pyridin-3-yl)-5,6-dihydropyridine-1(2H)-carboxamide] | > 10000 nM
7 | Cc1[nH]c2ncc(-c3ccc(S(N)(=O)=O)cc3)cc2c1C1=CCN(C(=O)NC2CCCC2)CC1 [Example 221, N-cyclopentyl-4-(2-methyl-5-(4-sulfamoylphenyl)-1H-pyrrolo[2,3-b]pyridin-3-yl)-5,6-dihydropyridine-1(2H)-carboxamide] | 2000 nM
8 | CNS(=O)(=O)c1ccc(-c2cnc3[nH]c(C)c(C4=CCN(C(=O)NC5CCCC5)CC4)c3c2)cc1 [Example 222, N-cyclopentyl-4-(2-methyl-5-(4-(N-methylsulfamoyl)phenyl)-1H-pyrrolo[2,3-b]pyridin-3-yl)-5,6-dihydropyridine-1(2H)-carboxamide] | 6800 nM
9 | Cc1[nH]c2ncc(-c3ccc(C(=O)N4CCOCC4)cc3)cc2c1C1=CCN(C(=O)NC2CCCC2)CC1 [Example 223, N-cyclopentyl-4-(2-methyl-5-(4-(morpholine-4-carbonyl)phenyl)-1H-pyrrolo[2,3-b]pyridin-3-yl)-5,6-dihydropyridine-1(2H)-carboxamide] | 1600 nM
10 | COc1ccc(-c2cc3c(C4=CCN(C(=O)OC(C)(C)C)CC4)c[nH]c3nc2N)cc1OC [Example 224, tert-butyl 4-(6-amino-5-(3,4-dimethoxyphenyl)-1H-pyrrolo[2,3-b]pyridin-3-yl)-5,6-dihydropyridine-1(2H)-carboxylate] | > 10000 nM
11 | CC(C)(C)OC(=O)N1CC=C(c2c[nH]c3nc(N)c(-c4ccc(CN5CCOCC5)s4)cc23)CC1 [Example 225, tert-butyl 4-(6-amino-5-(5-(morpholinomethyl)thiophen-2-yl)-1H-pyrrolo[2,3-b]pyridin-3-yl)-5,6-dihydropyridine-1(2H)-carboxylate] | > 10000 nM
12 | COc1ccc(-c2cc3c(C4=CCN(C(=O)NC5CCCC5)CC4)c[nH]c3nc2N)cc1OC [Example 226, 4-(6-amino-5-(3,4-dimethoxyphenyl)-1H-pyrrolo[2,3-b]pyridin-3-yl)-N-cyclopentyl-5,6-dihydropyridine-1(2H)-carboxamide] | > 10000 nM
13 | Nc1nc2[nH]cc(C3=CCN(C(=O)NC4CCCC4)CC3)c2cc1-c1ccc(CN2CCOCC2)s1 [Example 227, 4-(6-amino-5-(5-(morpholinomethyl)thiophen-2-yl)-1H-pyrrolo[2,3-b]pyridin-3-yl)-N-cyclopentyl-5,6-dihydropyridine-1(2H)-carboxamide] | 1500 nM

Now those with a lower IC50, led by results:

Row | IC50 | Structure (SMILES)
14 | 230 nM | O=C(c1cccs1)N1CC=C(c2c[nH]c3ncc(-c4cccc(S(=O)(=O)N5CCOCC5)c4)cc23)CC1 [Example 202, (4-(5-(3-(morpholinosulfonyl)phenyl)-1H-pyrrolo[2,3-b]pyridin-3-yl)-5,6-dihydropyridin-1(2H)-yl)(thiophen-2-yl)methanone]
15 | 39 nM | COc1ccc(-c2cnc3[nH]cc(C4=CCN(C(=O)c5cccs5)CC4)c3c2)cc1S(=O)(=O)N1CCOCC1 [Example 203, (4-(5-(4-methoxy-3-(morpholinosulfonyl)phenyl)-1H-pyrrolo[2,3-b]pyridin-3-yl)-5,6-di hydropyridin-1(2H)-yl)(thiophen-2-yl)methanone]
16 | 49 nM | O=C(c1cccs1)N1CC=C(c2c[nH]c3ncc(-c4ccc(CN5CCOCC5)s4)cc23)CC1 [Example 206, (4-(5-(5-(morpholinomethyl)thiophen-2-yl)-1H-pyrrolo[2,3-b]pyridin-3-yl)-5,6-dihydropyridin-1(2H)-yl)(thiophen-2-yl)methanone]
17 | 48 nM | O=C(c1cccs1)N1CC=C(c2c[nH]c3ncc(-c4csc(CN5CCOCC5)c4)cc23)CC1 [Example 207, (4-(5-(5-(morpholinomethyl)thiophen-3-yl)-1H-pyrrolo[2,3-b]pyridin-3-yl)-5,6-dihydropyridin-1(2H)-yl)(thiophen-2-yl)methanone]
18 | 190 nM | O=C(c1cccc(-c2cnc3[nH]cc(C4=CCN(C(=O)c5cccs5)CC4)c3c2)c1)N1CCOCC1 [Example 208, (4-(5-(3-(morpholine-4-carbonyl)phenyl)-1H-pyrrolo[2,3-b]pyridin-3-yl)-5,6-dihydropyridin-1(2H)-yl)(thiophen-2-yl)methanone]
19 | 180 nM | COc1ccc(-c2cnc3[nH]cc(C4=CCN(C(=O)c5cccs5)CC4C)c3c2)cc1OC (stereo not drawn) [Example 213, (4-(5-(3,4-dimethoxyphenyl)-1H-pyrrolo[2,3-b]pyridin-3-yl)-5-methyl-5,6-dihydropyridin-1(2H)-yl)(thiophen-2-yl)methanone]
20 | 78 nM | CC1CN(C(=O)c2cccs2)CC=C1c1c[nH]c2ncc(-c3ccc(S(C)(=O)=O)cc3)cc12 (stereo not drawn) [Example 214, (5-methyl-4-(5-(4-(methylsulfonyl)phenyl)-1H-pyrrolo[2,3-b]pyridin-3-yl)-5,6-dihydropyridin-1(2H)-yl)(thiophen-2-yl)methanone]
21 | 12 nM | CC1CN(C(=O)c2cccs2)CC=C1c1c[nH]c2ncc(-c3ccc(C(=O)N4CCOCC4)cc3)cc12 (stereo not drawn) [Example 215, (4-(3-(3-methyl-1-(thiophene-2-carbonyl)-1,2,3,6-tetrahydropyridin-4-yl)-1H-pyrrolo[2,3-b]pyridin-5-yl)phenyl)(morpholino)methanone]
22 | 73 nM | CC1CN(C(=O)c2cccs2)CC=C1c1c[nH]c2ncc(-c3ccc(CN4CCOCC4)s3)cc12 (stereo not drawn) [Example 216, (5-methyl-4-(5-(5-(morpholinomethyl)thiophen-2-yl)-1H-pyrrolo[2,3-b]pyridin-3-yl)-5,6-dihydropyridin-1(2H)-yl)(thiophen-2-yl)methanone]
23 | 360 nM | CN(C(=O)N1CC=C(c2c[nH]c3ncc(-c4cccc(S(C)(=O)=O)c4)cc23)CC1)C1CCCC1 [Example 217, N-cyclopentyl-N-methyl-4-(5-(3-(methylsulfonyl)phenyl)-1H-pyrrolo[2,3-b]pyridin-3-yl)-5,6-dihydropyridine-1(2H)-carboxamide]
24 | 1300 nM | COc1ccc(-c2cnc3[nH]cc(C4=CCN(C(=O)N(C)C5CCCC5)CC4)c3c2)cc1OC [Example 220, N-cyclopentyl-4-(5-(3,4-dimethoxyphenyl)-1H-pyrrolo[2,3-b]pyridin-3-yl)-N-methyl-5,6-dihydropyridine-1(2H)-carboxamide]
25 | 66 nM | O=C(NC1CCCC1)N1CC=C(c2c[nH]c3ncc(-c4ccc(CN5CCOCC5)s4)nc23)CC1 [Example 229, N-cyclopentyl-4-(2-(5-(morpholinomethyl)thiophen-2-yl)-5H-pyrrolo[2,3-b]pyrazin-7-yl)-5,6-dihydropyridine-1(2H)-carboxamide]
26 | 320 nM | COc1ccc(-c2cnc3[nH]cc(C4=CCN(C(=O)OC(C)(C)C)CC4)c3n2)cc1OC [Example 230, tert-butyl 4-(2-(3,4-dimethoxyphenyl)-5H-pyrrolo[2,3-b]pyrazin-7-yl)-5,6-dihydropyridine-1(2H)-carboxylate]
27 | 40 nM | O=C(c1cccs1)N1CC=C(c2c[nH]c3ncc(-c4ccc(CN5CCOCC5)s4)nc23)CC1 [Example 233, (4-(2-(5-(morpholinomethyl)thiophen-2-yl)-5H-pyrrolo[2,3-b]pyrazin-7-yl)-5,6-dihydropyridin-1(2H)-yl)(thiophen-2-yl)methanone]
